Data set [1] is described as follows: Urinary excretion by LC-MS/MS. The format is in vivo, human. Here is the method: Blood specimens for PK analysis were collected on Cycle 1 Day 1 (C1D1) prior to THU administration and then at 15, 30, and 45 min and 1, 2, 3, 4, 5, and 6 h after THU administration, as well as on C1D2 and C1D3 prior to and 2 h after THU administration. Urine specimens for PK analysis were collected on C1D1 prior to treatment and then at every void from 0 to 24 h after THU administration. All specimens for PK analysis were processed and analyzed by LC-MS/MS as described previously, and Phoenix WinNonlin software was used for data analysis.

Data set [2] is described as follows: Phase 1 dose escalation: adverse events (CTCAE v4.0), DLT, MTD/RP2D. The format is in vivo, human. The settings on record: orally once daily with 3000 mg THU on days 1–6 and 8–13 of each 21-day cycle (dose level 8).
Experimental: FdCyd and THU were supplied by the NCI Division of Cancer Treatment and Diagnosis. Patients were administered both drugs orally in 21-day cycles, and dose escalation proceeded according to a traditional 3 + 3 design as per the dose escalation schema shown in Supplementary Table S1. […] Patients maintained a study diary to note any side effects or concurrent medications. The NCI Common Terminology Criteria for Adverse Events version 4.0 was used to grade adverse events. Tumor response was assessed by radiography at baseline and every 2 cycles thereafter and evaluated per RECIST version 1.1 [11]. Following determination of the maximum tolerated dose (MTD)/recommended phase 2 dose (RP2D), an additional 13 patients were enrolled on a RP2D expansion cohort for assessments of pharmacodynamic biomarkers in baseline and on-treatment tumor biopsies.
DLTs were defined as toxicities that were at least possibly related to FdCyd or THU within the first cycle of treatment and met one of the following criteria: grade ≥ 3 non-hematological toxicity (including grade 3 nausea, vomiting, or diarrhea only if refractory to standard supportive care; grade 3 electrolyte toxicities only if unable to be corrected to ≤ grade 1 within 24 h; and tumor pain only if refractory to analgesics); grade 4 thrombocytopenia; or grade 4 neutropenia lasting ≥ 5 days or febrile neutropenia. […]
Data set [3] deals with p16-expressing vimentin-positive (V+) CTCs. Nature of the data set: CellSearch analysis of CTC p16 expression, V+ CTCs. The format is in vivo, human. The settings on record: 2 of the 22 evaluable patients; oral FdCyd + THU. Here is the method: (§1) Each blood specimen for CTC analysis (7.5 mL) was collected into a 10-mL CellSave preservative tube (Menarini Silicon Biosystems). Specimens were collected pre-treatment and then 6 h after THU administration on C1D1; prior to THU administration on […] and either C1D8 or […] (at the end of the first round of drug administration); on day 1 of cycle 2 and all subsequent cycles; and optionally at time of progression. Blood sample collection for CTC analysis was performed relative to the morning dose of THU for patients on the BID dose levels (DL10-11). CTC samples were processed and analyzed for p16, cytokeratin, and vimentin as described previously. Serial baseline blood specimens (C1D1 pre, C1D1 post, and […]) were obtained in light of baseline variability in CTC counts and p16 expression, and patients were considered assessable for cytokeratin-positive (CK^+) CTC p16 response if at least one of these baseline specimens (i.e., C1D1 pre, C1D1 post, and/or […]) and at least one post-treatment specimen (collected C2D1 or later) each contained ≥ 6 CTCs, as described. For patients with multiple baseline specimens, the specimen with the highest frequency of p16-positive CTCs was considered “baseline,” as described.

Data set [4] deals with p16-expressing cytokeratin-positive (CK+) CTCs. The data set is described as follows: CellSearch analysis of CTC p16 expression, CK+ CTCs. In kind it is in vivo, human. The settings on record: 23 of 30 evaluable patients; oral FdCyd + THU. Here is the method: as §1
The test system of a further data set is DNA methylation. Details: method as in PMID 2425957. The settings on record: preclinical data; 1 µM = 245 ng/mL; cited from earlier work.
Data set [5] relates to p16-expressing vimentin-positive (V+) CTCs. More on the design: method as in PMID 32314030. Conditions: intravenously administered FdCyd; 6 of 12; cited from earlier work.
In the next data set the test system is CDKN2A. Nature of the data set: Tumor CDKN2A promoter methylation from genome-wide methylation sequencing. The format is in vivo, human. Conditions: of 6 expansion cohort patients with both CDKN2A and p16 IHC data. The protocol: Tumor biopsy cores collected at baseline and C1W3 underwent nucleic acid extraction using the Qiagen AllPrep FFPE Nucleic acid Extraction kit and QiaCube automated platform. Extractions were performed on 1–2 biopsy cores per patient per time point; for specimens with low tumor content, tumor microdissection was performed prior to extraction. Genome-wide DNA methylation sequencing on the isolated DNA was performed by Zymo Research using Methyl-MiniSeq Genome-Wide Bisulfite Sequencing methodology. Sequence reads from bisulfite-treated Classic RRBS libraries were identified using standard Illumina base calling software. Raw FASTQ files were trimmed of adapter, filled-in nucleotides, and low-quality base calls using TrimGalore 0.6.4. […] Methylated and unmethylated read totals for each CpG site were called using Bismark Methylation Extractor. The methylation level of each sampled cytosine was estimated as the number of reads reporting a C, divided by the total number of reads reporting a C or T.
All statistical analyses were performed in R. Differentially methylated CpG sites (DMCs)—both hypo- and hyper-methylated—were identified with the R package DSS [14] using the two-sided Wald test for beta-binomial distributions with smoothing step as recommended. […] Regions with many significant DMCs were detected as differentially methylated regions (DMRs) using DSS function callDMR. […]

The source of these data is paper PMC12722308, “A phase 1 study of orally administered 5-fluoro-2’-deoxycytidine with tetrahydrouridine in patients with refractory solid tumors” (Cancer Chemotherapy and Pharmacology, 2025).

As to `Nc1nc(=O)n([C@H]2C[C@H](O)[C@@H](CO)O2)cc1F` [FdCyd, 5-fluoro-2’-deoxycytidine], the “FdCyd urinary excretion over 0-24 hours of day 1” value in data set [1] (All FdCyd doses + THU 3000 mg, N=6, geom. mean (geom. SD)) is 0.083 (2.2) % dose; in data set [1] (All FdCyd doses + THU 6000 mg, N=3, geom. mean (geom. SD)), 0.11 (2.6) % dose; in data set [1] (DL5-9: FdCyd 160 mg + THU 3000 mg, N=6, geom. mean (geom. SD)), 0.083 (2.2) % dose; in data set [1] (DL10: FdCyd 60 mg + THU 6000 mg, N=2, geom. mean (geom. SD)), 0.15 (3.2) % dose; in data set [1] (DL11: FdCyd 80 mg + THU 6000 mg, N=1), 0.058 (-) % dose. The “Maximum tolerated dose / RP2D, FdCyd dose” value in data set [2] is 160 mg. Besides, the “Patients with increases in the proportion of p16-expressing V+ CTCs” value in data set [3] stood at 9%. Besides, in data set [4], the “Patients with a treatment-associated increase in the proportion of p16+CK+ CTCs” value is given as 77%. Further, the “FdCyd concentration giving inhibition of DNA methylation in vitro” value in the data set on DNA methylation is on record as no less than 1 µM. For the same compound, the “Patients with increases in p16-expressing V+ CTCs” value in data set [5] is given as 50%. In addition, in the data set with CDKN2A, the “Patients with treatment-associated decreases in tumor CDKN2A methylation” value was “Five”.
